The values that follow come from ChEMBL document CHEMBL2203054, “Synthesis and biological evaluation of a selective N- and p/q-type calcium channel agonist” (ACS Med Chem Lett, 2012).

For experiment [1], the target named is T1, Voltage-dependent N-type calcium channel subunit alpha-1B (Homo sapiens, UniProt Q00975). Nature of the experiment: Agonist activity at N-type Cav2.2 channel expressed in tsA201 cell assessed as calcium current by whole-cell patch clamp method. The experiment is classed as functional, cell-based.
Target sequence in this assay (Q00975 whole entry): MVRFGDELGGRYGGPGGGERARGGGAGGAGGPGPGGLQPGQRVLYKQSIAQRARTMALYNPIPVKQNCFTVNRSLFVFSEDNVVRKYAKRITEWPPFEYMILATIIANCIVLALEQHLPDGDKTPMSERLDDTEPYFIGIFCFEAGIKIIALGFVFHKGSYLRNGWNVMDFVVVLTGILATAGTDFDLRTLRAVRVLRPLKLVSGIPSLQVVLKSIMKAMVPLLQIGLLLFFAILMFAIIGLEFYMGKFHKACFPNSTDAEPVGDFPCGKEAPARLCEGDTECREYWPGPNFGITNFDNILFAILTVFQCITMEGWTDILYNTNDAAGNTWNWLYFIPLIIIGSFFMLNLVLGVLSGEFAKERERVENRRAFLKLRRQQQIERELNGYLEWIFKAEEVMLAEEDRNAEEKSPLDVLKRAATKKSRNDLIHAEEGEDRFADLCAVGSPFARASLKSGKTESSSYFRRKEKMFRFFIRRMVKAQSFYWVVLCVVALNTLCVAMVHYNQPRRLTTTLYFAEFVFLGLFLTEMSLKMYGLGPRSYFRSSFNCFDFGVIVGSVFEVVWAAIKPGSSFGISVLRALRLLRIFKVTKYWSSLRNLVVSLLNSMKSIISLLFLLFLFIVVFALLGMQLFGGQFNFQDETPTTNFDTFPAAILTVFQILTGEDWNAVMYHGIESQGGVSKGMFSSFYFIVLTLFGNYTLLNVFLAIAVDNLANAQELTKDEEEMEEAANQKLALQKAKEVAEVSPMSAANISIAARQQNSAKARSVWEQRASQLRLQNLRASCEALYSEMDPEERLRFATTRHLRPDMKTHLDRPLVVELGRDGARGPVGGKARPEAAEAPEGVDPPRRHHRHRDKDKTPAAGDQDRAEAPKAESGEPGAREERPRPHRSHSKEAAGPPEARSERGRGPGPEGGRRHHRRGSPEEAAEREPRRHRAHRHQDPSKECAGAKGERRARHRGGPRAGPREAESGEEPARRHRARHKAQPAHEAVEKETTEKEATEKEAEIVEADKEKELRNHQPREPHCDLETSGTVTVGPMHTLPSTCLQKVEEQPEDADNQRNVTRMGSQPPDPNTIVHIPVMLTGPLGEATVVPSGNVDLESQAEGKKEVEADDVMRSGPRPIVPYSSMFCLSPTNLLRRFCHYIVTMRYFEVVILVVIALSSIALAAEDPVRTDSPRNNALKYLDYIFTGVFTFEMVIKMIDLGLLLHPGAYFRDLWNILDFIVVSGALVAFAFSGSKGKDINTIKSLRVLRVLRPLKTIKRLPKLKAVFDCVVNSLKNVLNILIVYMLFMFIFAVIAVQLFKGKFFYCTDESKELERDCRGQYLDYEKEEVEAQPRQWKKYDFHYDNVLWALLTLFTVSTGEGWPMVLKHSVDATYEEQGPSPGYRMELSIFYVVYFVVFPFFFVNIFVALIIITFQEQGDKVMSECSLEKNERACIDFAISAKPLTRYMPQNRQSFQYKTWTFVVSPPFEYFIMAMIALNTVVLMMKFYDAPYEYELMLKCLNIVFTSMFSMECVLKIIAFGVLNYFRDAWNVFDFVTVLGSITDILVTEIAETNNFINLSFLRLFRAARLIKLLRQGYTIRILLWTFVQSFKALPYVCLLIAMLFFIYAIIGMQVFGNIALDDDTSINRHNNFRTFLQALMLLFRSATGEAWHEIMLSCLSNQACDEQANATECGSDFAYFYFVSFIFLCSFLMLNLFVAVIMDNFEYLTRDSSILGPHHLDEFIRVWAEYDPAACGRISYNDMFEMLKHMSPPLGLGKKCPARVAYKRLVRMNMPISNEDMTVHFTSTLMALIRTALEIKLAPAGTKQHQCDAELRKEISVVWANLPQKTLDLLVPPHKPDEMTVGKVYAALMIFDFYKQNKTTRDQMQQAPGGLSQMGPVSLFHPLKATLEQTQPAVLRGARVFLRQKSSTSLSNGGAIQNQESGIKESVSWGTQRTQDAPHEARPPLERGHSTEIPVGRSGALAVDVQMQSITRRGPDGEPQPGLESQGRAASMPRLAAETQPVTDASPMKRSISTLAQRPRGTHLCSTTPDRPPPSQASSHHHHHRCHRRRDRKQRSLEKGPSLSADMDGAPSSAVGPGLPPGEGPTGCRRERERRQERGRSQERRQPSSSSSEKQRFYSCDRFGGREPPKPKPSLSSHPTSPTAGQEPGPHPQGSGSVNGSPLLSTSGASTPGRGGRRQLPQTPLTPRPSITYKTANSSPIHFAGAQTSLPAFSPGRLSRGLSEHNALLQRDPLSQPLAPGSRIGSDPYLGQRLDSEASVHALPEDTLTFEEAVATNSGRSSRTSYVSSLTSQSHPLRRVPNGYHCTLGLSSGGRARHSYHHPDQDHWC
The target in experiment [2] is T1, Voltage-dependent N-type calcium channel subunit alpha-1B. As to the kind of experiment: Ratio of (R)-roscovitine EC50 to compound EC50 for N-type Cav2.2 channel.
Target sequence in this assay (Q00975 whole entry, looked up): as the sequence (Q00975 whole entry) above
For experiment [3], the target named is Mitogen-activated protein kinase 1 (Homo sapiens, UniProt P28482). Nature of the experiment: Inhibition of human MAPK1.
Chain of Mitogen-activated protein kinase 1 (P28482 whole entry): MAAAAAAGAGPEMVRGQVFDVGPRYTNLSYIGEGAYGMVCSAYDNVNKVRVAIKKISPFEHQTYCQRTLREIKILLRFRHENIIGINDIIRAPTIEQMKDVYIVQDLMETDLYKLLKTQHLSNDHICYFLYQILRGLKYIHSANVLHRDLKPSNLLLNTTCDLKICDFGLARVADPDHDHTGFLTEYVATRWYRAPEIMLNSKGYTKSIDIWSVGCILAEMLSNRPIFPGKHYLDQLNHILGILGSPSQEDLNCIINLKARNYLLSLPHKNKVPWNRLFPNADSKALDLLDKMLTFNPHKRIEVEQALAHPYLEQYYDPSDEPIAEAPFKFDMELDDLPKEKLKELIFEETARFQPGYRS
Experiment [4] deals with Myosin light chain kinase, smooth muscle (Homo sapiens, UniProt Q15746). As to the kind of experiment: Inhibition of human MLCK.
Experiment [5] concerns the target Cyclin-dependent kinase 5/CDK5 activator 1 (Homo sapiens, UniProt Q00535). Nature of the experiment: Inhibition of human Cdk5/p35 activity. The experiment is classed as protein-complex assay.
The target of experiment [6] is Cyclin-dependent kinase 1/cyclin B1 (Homo sapiens, UniProt P06493). As to the kind of experiment: Inhibition of human Cdk1/cyclin B activity. Type of experiment: protein-complex assay.
Chain of Cyclin-dependent kinase 1/cyclin B1 (P06493 whole entry): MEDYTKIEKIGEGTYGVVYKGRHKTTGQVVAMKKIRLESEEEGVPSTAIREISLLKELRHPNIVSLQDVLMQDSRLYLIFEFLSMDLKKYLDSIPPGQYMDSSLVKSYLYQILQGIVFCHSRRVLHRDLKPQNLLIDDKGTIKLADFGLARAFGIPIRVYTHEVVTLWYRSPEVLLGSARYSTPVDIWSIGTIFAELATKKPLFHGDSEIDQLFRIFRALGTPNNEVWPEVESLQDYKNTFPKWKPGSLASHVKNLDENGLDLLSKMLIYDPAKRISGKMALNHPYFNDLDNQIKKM
Chain of Cyclin-dependent kinase 1/cyclin B1 (P14635 whole entry, further chain): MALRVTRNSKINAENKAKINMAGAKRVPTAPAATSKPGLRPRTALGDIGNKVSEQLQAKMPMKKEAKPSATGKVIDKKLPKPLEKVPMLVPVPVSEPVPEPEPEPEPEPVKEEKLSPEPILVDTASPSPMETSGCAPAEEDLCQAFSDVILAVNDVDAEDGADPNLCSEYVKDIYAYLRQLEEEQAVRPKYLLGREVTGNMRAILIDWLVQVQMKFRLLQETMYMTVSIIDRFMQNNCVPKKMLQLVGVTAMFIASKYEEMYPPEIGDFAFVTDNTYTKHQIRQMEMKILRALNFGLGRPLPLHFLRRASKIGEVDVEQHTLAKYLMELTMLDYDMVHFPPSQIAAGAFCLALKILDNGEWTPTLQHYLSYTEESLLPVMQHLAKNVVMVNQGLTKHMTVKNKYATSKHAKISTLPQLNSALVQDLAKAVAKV
Experiment [7] has as its target Voltage-dependent L-type calcium channel subunit alpha-1D (Homo sapiens, UniProt Q01668). Nature of the experiment: Agonist activity at L-type Cav1.3 expressed in tsA201 cell assessed as calcium current by whole-cell patch clamp method. The experiment is classed as functional, cell-based.
Experiment [8] deals with Voltage-dependent P/Q-type calcium channel subunit alpha-1A (Homo sapiens, UniProt O00555). Nature of the experiment: Agonist activity at P/Q-type Cav2.1 expressed in tsA201 cell assessed as calcium current by whole-cell patch clamp method. Type of experiment: functional, cell-based. On the technique in general: Patch clamp records ionic current or voltage across a cell membrane.

In experiment [9] the target is Cyclin-dependent kinase 2/cyclin A (Homo sapiens, UniProt P24941). Nature of the experiment: Inhibition of human Cdk2/cyclin A activity. The experiment is classed as protein-complex assay.

Chain of Cyclin-dependent kinase 5/CDK5 activator 1 (Q00535 whole entry): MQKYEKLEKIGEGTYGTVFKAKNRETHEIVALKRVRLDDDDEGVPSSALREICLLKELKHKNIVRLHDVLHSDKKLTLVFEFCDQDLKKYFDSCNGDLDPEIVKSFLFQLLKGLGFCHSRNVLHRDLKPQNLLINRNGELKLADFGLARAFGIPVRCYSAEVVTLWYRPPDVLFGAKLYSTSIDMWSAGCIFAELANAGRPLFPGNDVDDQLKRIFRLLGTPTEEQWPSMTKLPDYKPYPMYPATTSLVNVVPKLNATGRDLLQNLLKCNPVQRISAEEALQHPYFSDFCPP
Chain of Cyclin-dependent kinase 5/CDK5 activator 1 (Q15078 whole entry, further chain): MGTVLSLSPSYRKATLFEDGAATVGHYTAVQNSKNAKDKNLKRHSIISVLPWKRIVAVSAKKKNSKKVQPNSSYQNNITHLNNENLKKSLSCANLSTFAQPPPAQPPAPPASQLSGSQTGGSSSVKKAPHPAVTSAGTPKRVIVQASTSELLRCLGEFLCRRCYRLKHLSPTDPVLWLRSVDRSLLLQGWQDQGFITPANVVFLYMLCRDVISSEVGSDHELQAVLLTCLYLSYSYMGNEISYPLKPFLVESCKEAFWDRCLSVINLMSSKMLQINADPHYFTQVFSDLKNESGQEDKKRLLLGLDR

What is called EC50 is the concentration at which the effect is half-maximal. For the compound `CC[C@H](CO)Nc1nc(N(Cc2ccccc2)Cc2ccccc2)c2ncn(C(C)C)c2n1`, the EC50 in [1] was over 1000 µM.

`CC[C@H](CO)Nc1nc(NCc2cccnc2)c2ncn(C(C)C)c2n1`: in experiment [1], the EC50 was over 100 µM.

Take `CCCn1cnc2c(NCc3ccc(C)s3)nc(N[C@H](CC)CO)nc21`: in experiment [2], the Ratio EC50 was found to be 4. Further, the EC50 in experiment [3] was over 20 µM; in experiment [4] it was over 20 µM; in experiment [5] it was 3.03 µM; in experiment [6], 20.6 µM; in [7], over 100 µM; in experiment [8] it was 8.8 µM. Besides, the values for the concentration for a half-maximal effect (EC50) in [9] and in experiment [1] were 3.29 µM and 7.21 µM, respectively.

For the compound `CC[C@H](CO)Nc1nc(NCc2ccc(C)s2)c2ncn(C)c2n1`, the results for the EC50 in [9] and in experiment [1] were 3.04 µM and 30 µM, respectively.

For `CCCn1cnc2c(NCC3CC3)nc(N[C@H](CC)CO)nc21`, the EC50 was 3.63 µM in [9] and over 100 µM in experiment [1].

Take `CC[C@H](CO)Nc1nc(NCCc2ccccc2)c2ncn(C)c2n1`: in experiment [1], the concentration giving a half-maximal response (EC50) is over 100 µM.

With `Cn1cnc2c(NCc3ccccc3)nc(NCCO)nc21` [OLOMOUCINE], in [1], the EC50 was over 1000 µM.

Take `CC[C@H](CO)Nc1nc(Nc2ccccc2)c2ncn(C)c2n1`: in experiment [1], the EC50 is over 100 µM.

Consider `CC[C@H](CO)Nc1nc(N(C)Cc2ccccc2)c2ncn(C(C)C)c2n1`, for which the EC50 in [1] is over 1000 µM.

With `CCCn1cnc2c(NCc3ccc(-c4ccccc4)cc3)nc(N[C@H](CC)CO)nc21`, the EC50 in [1] is over 100 µM.

Consider `CC[C@H](CO)Nc1nc(NCCc2ccccc2)c2ncn(C(C)C)c2n1`, for which the EC50 in experiment [1] was over 100 µM.

On to `CCCn1cnc2c(Nc3ccccc3)nc(N[C@H](CC)CO)nc21`, for which, in [1], the EC50 was over 100 µM.

On to `CCCn1cnc2c(NCc3ccc(C(F)(F)F)cc3)nc(N[C@H](CC)CO)nc21`, for which the EC50 in experiment [1] was over 100 µM.

Turning to `CC[C@H](CO)Nc1nc(NCc2ccc(C)s2)c2ncn(C(C)C)c2n1`, the EC50 in experiment [1] was determined as 11.3 µM.

Take `CC[C@H](CO)Nc1nc(NC(c2ccccc2)c2ccccc2)c2ncn(C)c2n1`: the EC50 in experiment [1] was over 100 µM.

In the case of `CCCn1cnc2c(NCCc3ccccc3)nc(N[C@H](CC)CO)nc21`, the 50% effective concentration (EC50) in experiment [1] is over 100 µM.

For the compound `CC[C@H](CO)Nc1nc(NCc2ccc(-c3ccccc3)cc2)c2ncn(C)c2n1`, the EC50 in experiment [1] is over 100 µM.

In the case of `CC[C@H](CO)Nc1nc(NCc2ccccc2)n2ncc(C(C)C)c2n1`, the concentration for a half-maximal effect (EC50) in experiment [1] is under 100 µM.

Take `CC[C@H](CO)Nc1nc(NCc2ccccc2)c2ncn(C)c2n1`: the EC50 in experiment [1] is over 70 µM.

For the compound `CC[C@H](CO)Nc1nc(NCC2CC2)c2ncn(C(C)C)c2n1`, the 50% effective concentration (EC50) in [1] is over 100 µM.

`CC[C@H](CO)Nc1nc(NCc2ccc(-c3ccccc3)cc2)c2ncn(C(C)C)c2n1`: the EC50 in experiment [1] is over 100 µM.

In the case of `CC[C@H](CO)Nc1nc(NCc2cccc(C(F)(F)F)c2)c2ncn(C(C)C)c2n1`, in experiment [1], the EC50 was over 100 µM.

Turning to `CC[C@H](CO)Nc1nc(NCc2cccnc2)c2ncn(C)c2n1`, the EC50 in experiment [1] is over 100 µM.

`CCCn1cnc2c(NC(c3ccccc3)c3ccccc3)nc(N[C@H](CC)CO)nc21`: in experiment [1], the EC50 was over 100 µM.

For the compound `O=Nc1c(-c2c(O)[nH]c3ccccc23)[nH]c2ccccc12` [INDIRUBIN-3-MONOXIME], the EC50 in [1] was over 1000 µM.

Turning to `CN(C)CCNc1nc(NCc2ccccc2)c2ncn(C)c2n1`, the EC50 in [1] was over 1000 µM.

For the compound `CC[C@H](CO)Nc1nc(NC(c2ccccc2)c2ccccc2)c2ncn(C(C)C)c2n1`, the EC50 in experiment [1] is over 100 µM.

`O=c1[nH]c2ccccc2c2[nH]c3ccc(Br)cc3c12`: the EC50 in [1] was over 1000 µM.

`CC[C@H](CO)Nc1nc(NCC2CC2)c2ncn(C)c2n1`: the EC50 in [1] was over 100 µM.

For the compound `Cn1cnc2nc(NCCO)nc(NCc3ccccc3)c21`, in experiment [1], the EC50 was over 1000 µM.

For `CC[C@H](CO)Nc1nc(NCc2ccccc2O)c2ncn(C(C)C)c2n1` [OLOMOUCINE II], the EC50 in [1] was 80 µM.

In the case of `CC(C)n1cnc2c(NCc3ccccc3)nc(NCCO)nc21`, in experiment [1], the EC50 was over 1000 µM.

On to `CCCn1cnc2c(NCc3cccnc3)nc(N[C@H](CC)CO)nc21`, for which the EC50 in [1] is over 100 µM.

As for `CC(C)n1cnc2c(NCc3ccccc3)nc(NCCCO)nc21` [BOHEMINE], the EC50 in experiment [1] was over 1000 µM.

Consider `CCCn1cnc2c(NCc3ccccc3)nc(N[C@H](CC)CO)nc21`, for which, in experiment [1], the EC50 worked out at 14.2 µM.
